# Tested on: HIV Selected In Vitro by the Compound of Example 2B
# Assay: microbe, parasite or virus in culture
# Format: cell-based
# [1] = Human immunodeficiency virus 1, NL43, Virus NL4-3
# [2] = Human immunodeficiency virus 1, Virus P7
# [3] = Human immunodeficiency virus 1, Virus P11
# [4] = Human immunodeficiency virus 1, Virus P14
# [5] = Human immunodeficiency virus 1, Virus P17
SMILES,EC50 [1] [nM],EC50 [2] [nM],EC50 [3] [nM],EC50 [4] [nM],EC50 [5] [nM],"fold change in EC50 (all of the passaged virus (P7, P11, P14, P17)) [fold]",resistance (fold) (P17 virus)
"CC(C)(C)NC(=O)[C@@H]1C[C@@H]2CCCC[C@@H]2CN1C[C@@H](O)[C@H](Cc1ccccc1)NC(=O)[C@H](CC(N)=O)NC(=O)c1ccc2ccccc2n1 [Saquinavir, N-tert-butyl-decahydro-2-[2(R)-hydroxy-4-phenyl-3(S)-[[N-(2-quinolylcarbonyl)-L-asparaginyl]amino]butyl]-(4aS,8aS)-isoquinoline-3(S)-carboxamide]",20,33,58,48,82,≤ 4,–
"CC(C)(C)NC(=O)[C@@H]1CN(Cc2cccnc2)CCN1C[C@@H](O)C[C@@H](Cc1ccccc1)C(=O)N[C@H]1c2ccccc2C[C@H]1O [Indinavir, N-(2(R)-hydroxy-1 (S)-indanyl)-2(R)-phenylmethyl-4(S)-hydroxy-5-(1-(4-(3-pyridylmethyl)-2(S)-N'-(t-butylcarboxamido)-piperazinyl))-pentaneamide]",67,113,153,425,1360,–,20
